Marks after values point to notes of the source that are not given here.
Experiments:
Assay type in all cases: in vivo
[1] = tested on: Kunming mice; test: Influence on hypnosis effect with pentobarbital sodium doses below the threshold (25 mg/kg i.p.); details: pentobarbital sodium 25 mg/kg i.p. 60 min later, sleep observed in 30 min, n = 10
Text: (§1) 1.1 Animals for experiments: Kunming mice, weighting 18.9˜22.2 g for females, and 20.2˜23.0 g for males, licensed under SCXK-(Ji) 2007-0003, and provided by The experimental animal centre, Jilin University.
(§2) 1.2 Chemicals for experiments: The flavone derivatives provided in Examples 1-41 and the flavanone derivatives provided in Examples 42-71 are all formulated with 0.5% sodium carboxymethyl cellulose as solutions with required concentrations.
(§3) 1.3 Grouping of animals: 6420 animals are employed in the entire experiments and 2140 of the animals are randomly divided into 214 groups by gender, and the […] include: control group, low dosage group for each experimental drugs (25 mg/kg), medium dosage group for each experimental drugs (50 mg/kg), and high dosage group for each experimental drugs (100 mg/kg). Each group has 10 animals and either female or male constitutes half of the group. The groups are used in behavior observation and voluntary action observation. The other 4280 animals are randomly divided into 214 groups by gender respectively (the grouping way is the same with that described above). Each group has 20 animals and either female or male constitutes half of the group. In each group, 10 animals are used in hypnosis experimentations with pentobarbital sodium doses below the threshold, and the other 10 animals are used hypnosis experimentations with pentobarbital sodium doses at the threshold.
1.5.3 Influence on Hypnosis Effect with Mice Pentobarbital Sodium Doses Below the Threshold
(§4) The drug is intragastric administered in mice for single time, 2 animals of each group are given drug per round with the dosing interval of 40 min (±5 min). According to the administration round, in 60 min (±5 min) of each round after the drug administration, the animals were intraperitoneally injected 0.3% sodium pentobarbital 25 mg/kg, respectively. Sleep condition of the animals were observed within 30 min (under sleep determination standard of loss of righting reflex more than 1 min). After animals undergo loss of righting reflex, number of the animals is recorded, to calculate sleep percentage.
(§5) Number of autonomic activities is detected by leneve Test for homogeneity of variance. If the homogeneity of variance is good (P>0.05), statistical analysis is performed with ANOVA. If ANOVA have statistical significance (P≦0.05), Dunnett's test for multiple comparisons analysis is performed. Number of animals of sleeping mice is applied of ANOVA. Incidence rate of animal asleep is applied of χ2 test. Sleep latency and sleep duration are recorded in min, averaged by group, represented by standard deviation, and undergo statistical analysis using ANOVA.

[2] = tested on: Kunming mice; test: Influence on autonomic activity of normal mice (ZIL-2 mice autonomic activity meter, counts within 10 min); details: intragastric, x ± s, n = 10; for Times of activities in 1 h after drug administration/10 min: 1 h after administration; for Times of activities in 2 h after drug administration/10 min: 2 h after administration; for Times of activities in 24 h after drug administration/10 min: 24 h after administration
Text: as §1, §2, §3
1.4 Experimental instrument and agents: ZIL-2 mice autonomic activity meter, production of Institute of Materia Medica of Chinese Academy of Medical Sciences; pentobarbital sodium, Lot: 100808, 25 g/bottle, Beijing Chemical Reagent Company equipment imported from Germany.
1.5.2 Influence on Autonomic Activity of Normal Mice
After observing the general behavior, in 1 h, 2 h and 24 h after drug administration, respectively, ZIL-2 mice autonomic activity meter is put respectively. Number of autonomic activities of each group of mice is measured within 10 min. Results among groups are compared.
as §5

[3] = tested on: Kunming mice; test: Influence on hypnosis effect with pentobarbital sodium doses at the threshold (50 mg/kg i.p.); details: pentobarbital sodium 50 mg/kg i.p. 60 min later, x ± s, n = 10
Text: as §1, §2, §3
1.5.4 Influence on Hypnosis Effect with Mice Pentobarbital Sodium Doses at the Threshold
as §4, with “50” for “25”, “Time to fall asleep (sleep latency) and sleep duration” for “Sleep condition”, “recorded” for “observed”, “under” for “30 min (under”, “min.” for “min). After animals undergo loss of righting reflex, number of the animals is recorded, to calculate sleep percentage.”
as §5

[4] = test drug 25 mg/kg intragastric single dose
[5] = test drug 50 mg/kg intragastric single dose
[6] = test drug 100 mg/kg intragastric single dose
[7] = 25 mg/kg intragastric single dose
[8] = 50 mg/kg intragastric single dose
[9] = 100 mg/kg intragastric single dose

Row | SMILES | Number of sleeping animals [1, 4] | rate of sleeping (%) [1, 4] | Number of sleeping animals [1, 5] | rate of sleeping (%) [1, 5] | Number of sleeping animals [1, 6] | rate of sleeping (%) [1, 6] | Times of activities in 1 h after drug administration/10 min ([2]; 25 mg/kg) | Times of activities in 2 h after drug administration/10 min ([2]; 25 mg/kg) | Times of activities in 24 h after drug administration/10 min ([2]; 25 mg/kg) | Times of activities in 1 h after drug administration/10 min ([2]; 50 mg/kg) | Times of activities in 2 h after drug administration/10 min ([2]; 50 mg/kg) | Times of activities in 24 h after drug administration/10 min ([2]; 50 mg/kg) | Times of activities in 1 h after drug administration/10 min ([2]; 100 mg/kg) | Times of activities in 2 h after drug administration/10 min ([2]; 100 mg/kg) | Times of activities in 24 h after drug administration/10 min ([2]; 100 mg/kg) | duration of sleep [3, 7] | time to sleep [3, 7] | duration of sleep [3, 8] | time to sleep [3, 8] | duration of sleep [3, 9] | other results
1 | COc1cc(OC)c2c(=O)cc(-c3ccccc3O)oc2c1OC [Example 3, 2′-hydroxyl-5,7,8-trimethoxyl-flavone] | 3 | 30% | 4 | 40* % | 6 | 60** % | 283.4 ± 45.8 /10 min | 264.7 ± 46.1 /10 min | 305.8 ± 80.9 /10 min | 236.2 ± 41.5 /10 min | 246.3 ± 49.1 /10 min | 298.8 ± 71.0 /10 min | 180.5 ± 35.3 /10 min | 174.7 ± 40.5 /10 min | 286.9 ± 90.4 /10 min | 39.65 ± 18.32 min | 4.41 ± 1.43 min | 56.76 ± 24.86 min | 3.90 ± 1.93 min | 59.76 ± 25.75 min | time to sleep [3, 9]: 3.86 ± 1.22 min
2 | COc1cc(OC)c2c(=O)cc(-c3ccc(OC)c(O)c3)oc2c1 [Example 4, 3′-hydroxyl-5,7,4′-trimethoxyl-flavone] | 6 | 60** % | 7 | 70** % | 8 | 80*** % | 258.2 ± 44.2 /10 min | 250.3 ± 53.9 /10 min | 309.1 ± 76.1 /10 min | 219.3 ± 42.7 /10 min | 223.5 ± 41.3 /10 min | 318.4 ± 96.3 /10 min | 124.2 ± 49.1 /10 min | 127.2 ± 41.9 /10 min | 303.2 ± 90.1 /10 min | 63.65 ± 19.54 min | 3.75 ± 1.81 min | 69.91 ± 19.82 min | 3.41 ± 1.69 min | 81.66 ± 30.31 min | time to sleep [3, 9]: 2.51 ± 1.61 min
3 | CCc1cccc2c1C(=O)CC(c1cc(F)cc(C(=O)O)c1)O2 (stereo not drawn) [Example 53] | 4 | 40* % | 6 | 60** % | 7 | 70** % | 303.8 ± 67.4 /10 min | 283.8 ± 73.8 /10 min | 314.9 ± 68.9 /10 min | 249.3 ± 61.0 /10 min | 236.7 ± 60.8 /10 min | 297.7 ± 87.6 /10 min | 201.8 ± 36.6 /10 min | 194.8 ± 42.5 /10 min | 330.9 ± 73.6 /10 min | 39.56 ± 20.45 min | 4.82 ± 1.61 min | 47.28 ± 16.84 min | 4.31 ± 1.84 min | 52.86 ± 19.25 min | time to sleep [3, 9]: 3.61 ± 1.48 min
4 | COc1ccc(C2CC(=O)c3c(OC)c(OC)c(OC)c(OC)c3O2)cc1 (stereo not drawn) [Example 47, 5,6,7,8,4′-penta methoxyl-flavanone] | 4 | 40* % | 7 | 70** % | 8 | 80*** % | 328.6 ± 49.7 /10 min | 312.7 ± 56.1 /10 min | 315.1 ± 85.4 /10 min | 280.7 ± 61.3 /10 min | 278.6 ± 47.5 /10 min | 310.5 ± 75.3 /10 min | 237.2 ± 35.6 /10 min | 250.3 ± 46.2 /10 min | 307.1 ± 82.3 /10 min | 39.86 ± 16.75 min | 4.45 ± 1.43 min | 43.26 ± 20.65 min | 3.72 ± 1.65 min | 59.78 ± 19.65 min | time to sleep [3, 9]: 3.18 ± 1.54 min
5 | CCCc1cc2c(=O)cc(-c3ccc(C(=O)O)c(C(N)=O)c3)oc2c(I)c1CCS(=O)(=O)O [Example 35] | 4 | 40* % | 6 | 60** % | 7 | 70** % | 336.84 ± 57.8 /10 min | 278.8 ± 49.0 /10 min | 307.4 ± 69.8 /10 min | 310.3 ± 48.9 /10 min | 244.8 ± 39.6 /10 min | 308.1 ± 954 /10 min | 266.8 ± 50.1 /10 min | 219.6 ± 47.7 /10 min | 321.5 ± 72.9 /10 min | 38.25 ± 15.16 min | 4.35 ± 1.42 min | 57.54 ± 28.39 min | 3.88 ± 1.16 min | 58.38 ± 26.82 min | time to sleep [3, 9]: 3.76 ± 1.49 min

— patent US9669003B2, “Use of flavone and flavanone derivatives in preparation of sedative and hypnotic drugs” (priority 2012, dated 2017)
